Assay results reported in patent US20100292233A1, “DIHYDRO-1H-PYRROLO[1,2-A]INDOL-1-YL CARBOXYLIC ACID DERIVATIVES WHICH ACT AS S1P1 AGONISTS” (ARENA PHARMACEUTICALS, INC., priority 2008, published 2010).

Experiments:
Lewis rats = experiment: Collagen-induced arthritis in rats (ankle diameter); type: in vivo; conditions: rat, p.o., q.d., day 0 through day 16; 1, 3 and 10 mg/kg; FIG. 4
Procedure: Female Lewis rats were used in this study. Acclimated animals were anesthetized with isoflurane and given the first collagen injection (day 0). On day 6, they were anesthetized again for the second collagen injection. Collagen was prepared by making a 4 mg/mL solution in 0.01 N acetic acid. Equal volumes of collagen and incomplete Freund's adjuvant were emulsified by hand mixing until a bead of this material held its form when placed in water. Each animal received 300 μL of the mixture each time, spread over 3 subcutaneous sites on the back.
Treatment (p.o., q. d., 5 mL/kg dosing volume) began on day 0 and continued through day 16 with vehicle or compounds given at 24 h intervals. Rats were weighed on days 0, 3, 6 and 9 through 17 and caliper measurements of the ankles taken on days 9 through 17. The 2nd enantiomer of Compound 2 (isolated after resolution of compound 2 by HPLC, with a retention time of 14.9 min per the conditions reported in Example 1.25) was dosed at 1, 3 and 10 mg/kg.

NOD/Ltj mice = experiment: Cyclophosphamide induced type 1 diabetes in mice; type: in vivo, mouse; conditions: oral, once a day from day 0 until day 25; 3 and 10 mg/kg; FIG. 6
Procedure: Animals: Baseline blood glucose measurements were taken from 9-10 week old female NOD/Ltj mice (Jackson Laboratory, Bar Harbor, Me.) to ensure that they are normoglycemic (blood glucose is 80-120 mg/dL) prior to initiation of the experiment. Blood glucose was measured from tail bleeds using a One Touch Ultra® kit and test strips (LifeScan, Milpitas, Calif.).
Cyclophosphamide induction of Type 1 diabetes: On day 0 and day 14, normoglycemic NOD mice were injected intraperitoneally with 4 mg cyclophosphamide monohydrate (200 mg/kg) dissolved in 0.9% saline. If mice were diabetic (blood glucose is >250 mg/dL) they were not given a booster dose of cyclophosphamide on day 14.
Drug Treatment: Mice were dosed orally, with vehicle or test compound, once a day from day 0 until day 25. Compounds were suspended in 0.5% methyl cellulose vehicle using a sonicator to ensure uniform suspension. Mice were weighed twice weekly and were dosed according to weight. Dosing volume is 5 mL/kg. Test compound was dosed at 3 mg/kg and 10 mg/kg. Blood glucose was measured twice weekly. After dosing was completed at day 25, the mice continued to be monitored and blood glucose measurements were taken once a week for 3 weeks.

C57BL/6 mice [1] = experiment: MOG-induced EAE in mice; type: in vivo, mouse; conditions: oral, once a day from day 3 until day 21; 1, 3 and 10 mg/kg; FIG. 3
Procedure: (§1) Animals: Female C57BL/6 mice (8 to 10 weeks of age at start of study) (Jackson Laboratory, Bar Harbor, Me.) were housed four per cage and maintained in a humidity—(40-60%) and temperature—(68-72° F.) controlled facility on a 12 hr:12 hr light/dark cycle (lights on at 6:30 am) with free access to food (Harlan Teklad, Orange, Calif., Rodent Diet 8604) and water. Mice were allowed one week of habituation to the animal facility before testing.
Induction of EAE: Mice were immunized subcutaneously, 50 μL per hind flank, with a total of 100 μg MOG35-55 peptide emulsified 1:1 with Complete Freund's adjuvant containing 4 mg/mL heat-killed Mycobacterium tuberculosis. Mice also received 200 ng pertussis toxin intraperitoneally on the day of immunization and 48 hours later.
Clinical scoring: Severity of disease symptoms was scored as follows (in increasing order of severity): 0=normal; 1=limp tail OR hind limb weakness; 2=limp tail AND limb weakness/weakness of 2 or more limbs; 3=severe limb weakness or single limb paralysis; 4=paralysis of 2 or more limbs; 5=death.
Drug treatment: Mice were dosed orally, with vehicle or test compound, once a day from day 3 until day 21. Dosing volume is 5 mL/kg. […] Mice were monitored daily from day 7 onward for disease symptoms. After the last dose on day 21, disease progression was monitored daily for 2 more weeks.

C57BL/6 mice [2] = experiment: Mouse skin allograft survival; type: in vivo; conditions: oral, once a day; 1, 3 and 10 mg/kg; FIG. 5
Procedure: as §1, with “BALB/cJ” for “C57BL/6”, “(6” for “(8”, “7” for “10”, “water. Female C57BL/6 mice (8 to 10 weeks of age at start of study) (Jackson Laboratory, Bar Harbor, Me.) were similarly housed and maintained.” for “water.”, “testing. […]” for “testing.”
Clinical scoring: Skin allografts were inspected and digital images recorded daily until rejection, which was defined as the first day on which more than 80% of the graft is necrotic. […] In an optional related study, on posttransplantation day 5 isolated lymphocytes from peripheral lymph nodes and spleen were counted and characterized for activation markers (e.g., T-cell activation markers) by flow cytometry. Also on day 5, grafts were removed from transplanted recipients, cut into small fragments, digested with collagenase and sedimented over Ficoll-Paque (Pharmacia Biotech, Uppsala, Sweden) to isolate graft-infiltrating lymphocytes, which were counted and characterized for activation markers (e.g., T-cell activation markers) by flow cytometry. […]

Compound: N#Cc1cc(OC(F)(F)F)cc(-c2nc(-c3ccc4c(c3)cc3n4CCC3CC(=O)O)no2)c1 (stereo not drawn) [2nd enantiomer of Compound 2, 2-(7-(5-(3-Cyano-5-(trifluoromethoxy)phenyl)-1,2,4-oxadiazol-3-yl)-2,3-dihydro-1H-pyrrolo[1,2-a]indol-1-yl)acetic Acid]
- reduction of mean ankle diameter vs vehicle (Lewis rats): exhibited activity for reducing mean ankle diameter
- activity in the mouse type I diabetes assay (blood glucose vs vehicle) (NOD/Ltj mice): exhibited activity in the mouse type I diabetes assay
- activity in the mouse EAE assay (severity of disease symptoms vs vehicle) (C57BL/6 mice [1]): exhibited activity in the mouse EAE assay
- activity in the mouse skin allograft assay (time of rejection vs vehicle) (C57BL/6 mice [2]): exhibited activity in the mouse skin allograft assay
